Experiments:
[1] = test system: HepG2 and primary rat hepatocytes; assay: Release of Annexin V-positive MPs from hepatocytes (flow cytometry); format: cell-based, human (HepG2); rat (primary hepatocytes); conditions: hepatocytes incubated with 0.25 mM FFA up to 24 h, vs controls (FIGS. 2D, 2F, 9)
Description: For microparticles (MPs) isolation, HepG2 and primary rat hepatocytes were seeded onto a 100 mm dish and cultured until reaching 80-85% of confluence. Cells were incubated with 0.25 mM of palmitic, stearic, oleic or linoleic acid (FFA) in serum-free DMEM, supplemented with 1.1% penicillin and streptomycin, 1% endotoxin-free bovine serum albumin (BSA), for up to 24 h. […] The uptake of FFAs from hepatocytes was evaluated by Oil red-O staining kit (Cayman, Ann Arbor, Mich., USA) according to the manufacturer instruction. To determine the effect of caspase 3 activity, hepatocytes were treated with a selective caspase 3 inhibitor, Ac-DEVD-CHO (BD Pharmingen, Franklin Lakes, N.J., US). Control cells were incubated with the same serum-free media in association to the vehicle that was used to dissolve the FFAs. After 24 h, the supernatant were collected and centrifuged twice at 3,000 rpm for 15 minutes to remove cell debris and aggregates. The supernatant was then transferred to new tubes and ultracentrifuged at 100,000 g for 90 minutes at 10° C., to avoid contamination of exosomes.
The supernatant was collected in new tubes and used as a MP-free control and the pelleted MPs were resuspended in 200 μl of PBS for flow cytometry or in 500 μl of EGM-2 growth medium for subsequent in vitro studies. The concentration of microparticles μg/mL was determined by the BCA protein assay and different concentrations of MPs (50, 125, 250 and 500 μg/mL) were used to perform the dose-dependent angiogenesis in vitro assays. For selected purposes, in particular for the characterization analyses, crude MPs were purified by 10-70% sucrose gradient ultracentrifugation at 150,000 g for 18 h at 10° C., collected as fractions in new tubes. […]
Flow cytometry analyses for microparticles (or endothelial cells) detection were performed by using BD LSRII Flow Cytometer System (BD Biosciences, San Jose, Calif., USA) and the data were analyzed using FlowJo software (TreeStar Inc., Ashland, Oreg., USA). […]

[2] = test system: HUVECs; assay: HUVEC migration (Boyden's chamber chemotaxis, wound healing); format: cell-based, human; conditions: supernatants from hepatocytes incubated with FFA up to 24 h; VEGF-A positive control
Description: In vitro migration studies have been performed by using human umbilical cell endothelial cells (HUVECs). Wound healing assay was performed to analyze chemokinesis (non-oriented migration) by using collagen-coated 6-well culture plate, where a silicon elastomer (PDMS) strip was placed vertically to the bottom of every well to create the artificial wound. HUVECs were plated and grown until reaching the complete confluence. HUVECs were treated with EBM-2 supplemented with 100 ng/mL of VEGF (Peprotech, Rocky Hill, N.J., USA), hepatocytes-derived MPs, MP-free supernatant or supernatant collected after 24 hours of treatment with FFAs. The strips were removed carefully and migration of cells was detected by a confocal microscope, capturing one picture per field every 10 minutes for 48 hours. Mitomycin (1 μg/ml) was used to inhibit cell proliferation during wound healing assay. Data were analyzed by using Wimscratch software (Wimasis, Munich, Germany) in order to get the total cell-covered area (pixel). Boyden's chamber assay was performed to analyze chemotaxis (oriented migration) by using cell culture inserts 8 μm pore size (Millipore, Billerica, Mass., USA) and 24-well plate. Each well was filled with 500 μl of serum free EBM-2 media in presence or absence of the following chemoattractants: 100 ng/mL VEGF; hepatocytes-derived MPs; MP-free supernatant or conditioned supernatant. The inserts were placed on top of each well and 150 μl of cell suspension (5×10^4 cells) was added. Plates were incubated overnight at 37° C., and then the filters were removed and stained with Vectashield mounting medium with 4′,6-diamino-2-phenylindole (DAPI) (Vector Labs, Burlingame, Calif., USA).
Migrated cells were detected with a fluorescence microscope and number per field of their nuclei was counted. For the ex vivo studies, PFP isolated from different groups of mice (chow, HF/HCarb, MCD fed mice and mice injected with control siRNA, VNN1 siRNA or PBS as vehicle) were ultracentrifuged at 100,000 g for 1 h at 10° C. to pellet the blood MPs.

[3] = test system: HUVECs; assay: HUVEC tube formation assay; format: cell-based, human; conditions: supernatants from HepG2/primary rat hepatocytes incubated with FFA up to 24 h; VEGF-A positive control
Description: HUVECs (0.5-1×10^5 cells per well) were seeded onto a coated 24-well plate culture dishes with 200 μl/cm2 (thick gel method) of Matrigel (BD, Franklin Lakes, N.J., USA) and cultured in EBM-2 basal medium supplemented with 1.1% of streptomycin and penicillin in the presence of 100 ng/mL of VEGF (Peprotech, Rocky Hill, N.J., USA), hepatocytes-derived MPs, MP-free supernatant or conditioned supernatant collected after 24 hours of treatment with FFAs. In selective studies, a specific inhibitor for RhoA-ROCK (Y27632, 10 μM) was used in association with MPs in the treatment of endothelial cells. For the ex vivo studies, PFP isolated from different groups of mice (chow, HF/HCarb, MCD fed mice and mice injected with control RNA, VNN1 siRNA or PBS as vehicle) were ultracentrifuged at 100,000 g for 1 h at 10° C. to pellet the blood MPs. HUVECs were treated with MPs (or blood pure MPs) and incubated for 5 h at 37° C. Tube formation was investigated by using an inverted microscope at 4× magnification and images were captured. Tube formation image analysis was assessed by using Wimtube software (Wimasis, Munich, Germany) and the values referred to total tube length (pixel) were used for statistical and data analysis.

SMILES: CCCCCCCC/C=C\CCCCCCCC(=O)O [oleic acid]
- Annexin V positive MPs in supernatants (MP formation/release) [1]: failed to induce any increase
- endothelial cell oriented (chemotaxis) and non-oriented migration induced by cell-free supernatants of FFA-treated hepatocytes [2]: not
- tube formation induced by cell-free supernatants of FFA-treated hepatocytes [3]: not

SMILES: CCCCCCCCCCCCCCCC(=O)O [palmitic acid]
- Annexin V positive MPs in supernatants (MP formation/release) [1]: marked increase
- endothelial cell oriented (chemotaxis) and non-oriented migration induced by cell-free supernatants of FFA-treated hepatocytes [2]: marked increase
- tube formation induced by cell-free supernatants of FFA-treated hepatocytes [3]: marked increase
